Test results reported in PMC12766724, “Synthesis, Anthelmintic Activity, and Mechanism of Action of 5‑Aryl‑1H‑indoles” (Journal of Agricultural and Food Chemistry, 2025).
≈ marks a conversion by molar mass, not a printed value. Values belong to the molecule of their own block, whether it stands above or below them.

Assays:
C. elegans N2 wild-type = assay: Chitinase assay (reproductive capacity); format: in vivo, Caenorhabditis elegans; conditions: Caenorhabditis elegans
Experimental: The effect of compounds on C. elegans was evaluated using the Chitinase assay as we described previously.
After exposing L1 larvae to the compounds for 4 days, we observed the populations under a microscope and measured the Chitinase activity. The larvae produce the enzyme while hatching, and its activity is indicative of the reproductive capacity of the worms. Populations that fail to reproduce due to acute or reproductive toxicity or developmental abnormalities are detected.

[1] = test system: age unsynchronized Ditylenchus destructor; assay: Motility on WMicrotracker ONE; format: in vivo
Experimental: Populations of D. destructor, kindly provided by Central Institute for Supervising and Testing in Agriculture, the Ministry of Agriculture of the Czech Republic, were maintained according to the protocol previously described here.
(§1) The effect of compounds on motility of H. contortus, D. destructor, and H. schachtii was evaluated using the WMicrotracker ONE platform according to previously published protocols. ,
(§2) The instrument evaluates the activity of small animals by counting how many times infrared light microbeams passing through the wells of a microtiter plate are interrupted. In age-unsynchronized populations of D. destructor, we observed reduced motility of worm populations treated with the halogenated derivatives i-19, i-20, and i-21 (Figures A, S2.1A, S2.2A and Table S2.1). […] The decreases in mean activity counts after 72 h of treatment at 100 μM were 85% and 97%, respectively.

[2] = test system: Heterodera schachtii second-stage juveniles (J2); assay: Motility on WMicrotracker ONE; format: in vivo
Experimental: H. schachtii was maintained on mustard (Sinapsis alba cv. Albatros) roots grown in vitro on modified KNOP medium according to the previously published protocols. ,
as §1, §2

[3] = test system: Arabidopsis thaliana Col-0; assay: Germination rate and phytotoxicity; format: in vivo; conditions: for average fraction of germinated seeds: 5 DPS; for main root length / plant weight: 10 DPS
Experimental: Wild-type A. thaliana (Col-0 ecotype) seeds were sterilized with 70% EtOH with 0.1% Tween-20 solution (2 × 1 mL) for 10 min, rinsed with 96% EtOH (1 × 1 mL) for 10 min, and kept in the fridge (4 °C in the dark). Seeds were sown on a sterile 1/2 MS medium supplemented with 0.3% DMSO as a mock and test compounds at 5, 10, 50, and 100 μM concentrations in 0.3% DMSO. Plates were kept in long-day light conditions (22 °C/20 °C, 16 h light/8 h dark, 100 μmol m^–2 s^–1). After 5 days, the germination rate was evaluated. After an additional 5 days, primary root growth was measured with ImageJ software (https://imagej.nih.gov/ij/), and seedlings were weighted.

Skin fibroblasts (BJ) = assay: Resazurin assay, 3-day treatment; format: cell-based, human; conditions: BJ
Experimental: Skin fibroblasts (BJ) were obtained from the American Type Culture Collection (ATCC, Manassas, VA), while human keratinocytes (HaCaT) were sourced from the German Cancer Research Center in Heidelberg, Germany. Cells were cultured in a standard DMEM medium from Sigma-Aldrich, supplemented with 10% fetal bovine serum, 2 mM glutamine, 100 U/mL penicillin, and 100 μg/mL streptomycin. Cultures were maintained under standard conditions (37 °C, 5% CO2, humidified atmosphere) and subcultured two to three times per week. We assessed the effect of 3-day compound treatments on cell viability using a resazurin reduction assay measuring mitochondrial activity. Approximately 5,000 cells in 80 μL of culture medium were seeded into the wells of a 96-well plate. Twenty-four hours later, 20 μL of 5-fold concentrated test compound solutions was added and tested across three concentrations prepared through 2-fold serial dilutions. The highest final concentration was 40 μM. After 72 h, we added an 11-fold concentrated resazurin solution to the wells, achieving a final concentration of 0.0125 μM. Fluorescence (ex = 570 nm, em = 610 nm) was measured after 3 h of incubation. […]

[4] = test system: human keratinocytes (HaCaT); assay: Resazurin assay, 3-day treatment; format: cell-based
Experimental: Skin fibroblasts (BJ) were obtained from the American Type Culture Collection (ATCC, Manassas, VA), while human keratinocytes (HaCaT) were sourced from the German Cancer Research Center in Heidelberg, Germany. Cells were cultured in a standard DMEM medium from Sigma-Aldrich, supplemented with 10% fetal bovine serum, 2 mM glutamine, 100 U/mL penicillin, and 100 μg/mL streptomycin. Cultures were maintained under standard conditions (37 °C, 5% CO2, humidified atmosphere) and subcultured two to three times per week. We assessed the effect of 3-day compound treatments on cell viability using a resazurin reduction assay measuring mitochondrial activity. Approximately 5,000 cells in 80 μL of culture medium were seeded into the wells of a 96-well plate. Twenty-four hours later, 20 μL of 5-fold concentrated test compound solutions was added and tested across three concentrations prepared through 2-fold serial dilutions. The highest final concentration was 40 μM. After 72 h, we added an 11-fold concentrated resazurin solution to the wells, achieving a final concentration of 0.0125 μM. Fluorescence (ex = 570 nm, em = 610 nm) was measured after 3 h of incubation.
The disubstituted derivatives i-25 and i-27 were the most toxic in the set, causing around a 50% decrease in viability of HaCaT cells at 40 μM.

[5] = Visual inspection of DMSO stock solutions; format: physicochemical; conditions: 50 mM in DMSO, stored at −20 °C
Experimental: For bioassays, all compounds were dissolved in dimethyl sulfoxide (DMSO) to prepare 50 mM stock solutions. Stock solutions were stored at −20 °C and diluted in water or the appropriate media for each bioassay to achieve the final concentrations indicated below. Solubility was evaluated by visual inspection of stock solutions (assessing clarity or cloudiness) and by microscopic examination of media to detect potential crystal formation. The final DMSO concentrations in the bioassays were kept at levels that had no detectable impact on test organisms, as determined by comparison with water-treated controls (0.1% for cell cultures, 0.2% for nematodes, and 0.3% for Arabidopsis thaliana Col-0).

Meloidogyne incognita = test system: Meloidogyne incognita; set-up: method as in not printed (reference number lost in b5); conditions: ref not printed (reference number lost in b5); cited from earlier work
[6] = 10 µM group, initial (prior to the treatment)
[7] = 50 µM group, initial (prior to the treatment)
[8] = 100 µM group, initial (prior to the treatment)

IC50 (C. elegans N2 wild-type): 7.6 ± 2.3 µM
SMILES: CC(C)c1ccc(-c2ccc3[nH]ccc3c2)cc1 [i-17]
average activity counts [1, 6]: 228
average activity counts ([1]; 10 µM, 48 h): 211
average activity counts ([1]; 10 µM, 72 h): 212
average activity counts [1, 7]: 228
average activity counts ([1]; 50 µM, 48 h): 223
average activity counts ([1]; 50 µM, 72 h): 224
average activity counts [1, 8]: 245
average activity counts ([1]; 100 µM, 48 h): 206
average activity counts ([1]; 100 µM, 72 h): 212
average activity counts [2, 6]: 178
average activity counts ([2]; 10 µM, 48 h): 160
average activity counts ([2]; 10 µM, 72 h): 139
average activity counts [2, 7]: 181
average activity counts ([2]; 50 µM, 48 h): 158
average activity counts ([2]; 50 µM, 72 h): 158
average activity counts [2, 8]: 197
average activity counts ([2]; 100 µM, 48 h): 158
average activity counts ([2]; 100 µM, 72 h): 122
average fraction of germinated seeds ([3]; 5 µM): 0.95
main root length ([3]; 5 µM): 38.83 mm
plant weight ([3]; 5 µM): 35.01 mg
average fraction of germinated seeds ([3]; 10 µM): 0.98
main root length ([3]; 10 µM): 37.53 mm
plant weight ([3]; 10 µM): 28.28 mg
average fraction of germinated seeds ([3]; 50 µM): 0.89
main root length ([3]; 50 µM): 31.19 mm
plant weight ([3]; 50 µM): 26.18 mg
Average viability (signal intensity relative to control) (Skin fibroblasts (BJ); 10 µM): 0.9 ± 0.01
Average viability (signal intensity relative to control) (Skin fibroblasts (BJ); 20 µM): 0.92 ± 0.05
Average viability (signal intensity relative to control) (Skin fibroblasts (BJ); 40 µM): 0.82 ± 0.07
Average viability (signal intensity relative to control) ([4]; 10 µM): 0.98 ± 0.01
Average viability (signal intensity relative to control) ([4]; 20 µM): 0.99 ± 0.01
Average viability (signal intensity relative to control) ([4]; 40 µM): 0.87 ± 0.04
stability of stock solutions [5]: precipitation of stock solutions after a single freeze–thaw cycle

SMILES: O=C(O)Cc1c[nH]c2ccccc12 [Indole-3-acetic acid]
LC50 (Meloidogyne incognita): 117 µg/mL (≈ 668 µM)
